ChEMBL document CHEMBL5244223, “l,8-Naphthalimide based DNA intercalators and anticancer agents. A systematic review from 2007 to 2017” (Eur J Med Chem, 2018)
Converted amounts (≈) assume the structure as drawn.

Experiments:
Calf thymus DNA [1] = assay: Binding affinity to calf thymus DNA assessed as binding constant incubated for 30 mins by fluorescence based EtBr-displacement assay; type: nucleic-acid assay; details: Bos taurus
[2] = Antioxidant activity assessed as DPPH radical scavenging activity incubated for 30 mins by UV-Vis spectrophotometer assay; type: functional
[3] = Antioxidant activity assessed as hydrogen peroxide free radical scavenging activity incubated for 10 mins; type: functional
Calf thymus DNA [4] = assay: Binding affinity to calf thymus DNA assessed as binding constant incubated for 10 mins by isothermal titration calorimetric assay; type: nucleic-acid assay; details: Bos taurus
Calf thymus DNA [5] = assay: Binding affinity to calf thymus DNA assessed as DNA intercalation by measuring change in melting temperature by thermal denaturation assay; type: nucleic-acid assay; details: Bos taurus
A2780 = assay: Cytotoxicity against human A2780 cells assessed as inhibition of cell growth incubated for 72 hrs by SRB assay; type: functional, cell-based; details: A2780, 72 h
Staphylococcus aureus = assay: Antibacterial activity against Staphylococcus aureus MTCC 96 assessed as inhibition of bacterial growth by agar well diffusion assay; type: functional
[6] = test system: Staphylococcus epidermidis; assay: Antibacterial activity against Staphylococcus epidermidis MTCC 435 assessed as inhibition of bacterial growth by agar well diffusion assay; type: functional
Escherichia coli = assay: Antibacterial activity against Escherichia coli MTCC 443 assessed as inhibition of bacterial growth by agar well diffusion assay; type: functional
Pseudomonas aeruginosa = assay: Antibacterial activity against Pseudomonas aeruginosa MTCC 741 assessed as inhibition of bacterial growth by agar well diffusion assay; type: functional
K562 [7] = assay: Cytotoxicity against human K562 cells assessed as cell growth inhibition incubated for 48 hrs by sulforhodamine B reagent assay; type: functional, cell-based; details: K562, 48 h
EKVX = assay: Cytotoxicity against human EKVX cells assessed as cell growth inhibition incubated for 48 hrs by sulforhodamine B reagent assay; type: functional, cell-based
NCI-H322M = assay: Cytotoxicity against human NCI-H322M cells assessed as cell growth inhibition incubated for 48 hrs by sulforhodamine B reagent assay; type: functional, cell-based
HCT-116 [8] = assay: Cytotoxicity against human HCT-116 cells assessed as cell growth inhibition incubated for 48 hrs by sulforhodamine B reagent assay; type: functional, cell-based; details: HCT-116, 48 h
KM12 = assay: Cytotoxicity against human KM12 cells assessed as cell growth inhibition incubated for 48 hrs by sulforhodamine B reagent assay; type: functional, cell-based; details: KM12, 48 h
SW-620 = assay: Cytotoxicity against human SW620 cells assessed as cell growth inhibition incubated for 48 hrs by sulforhodamine B reagent assay; type: functional, cell-based; details: SW-620, 48 h
SF-539 = assay: Cytotoxicity against human SF-539 cells assessed as cell growth inhibition incubated for 48 hrs by sulforhodamine B reagent assay; type: functional, cell-based; details: SF-539, 48 h
SNB-75 = assay: Cytotoxicity against human SNB-75 cells assessed as cell growth inhibition incubated for 48 hrs by sulforhodamine B reagent assay; type: functional, cell-based; details: SNB-75, 48 h
U-251 = assay: Cytotoxicity against human U-251 cells assessed as cell growth inhibition incubated for 48 hrs by sulforhodamine B reagent assay; type: functional, cell-based; details: U-251, 48 h
Malme-3M = assay: Cytotoxicity against human Malme-3M cells assessed as cell growth inhibition incubated for 48 hrs by sulforhodamine B reagent assay; type: functional, cell-based
SK-MEL-28 = assay: Cytotoxicity against human SK-MEL-28 cells assessed as cell growth inhibition incubated for 48 hrs by sulforhodamine B reagent assay; type: functional, cell-based; details: SK-MEL-28, 48 h
SK-MEL-5 = assay: Cytotoxicity against human SK-MEL-5 cells assessed as cell growth inhibition incubated for 48 hrs by sulforhodamine B reagent assay; type: functional, cell-based; details: SK-MEL-5, 48 h
OVCAR-4 = assay: Cytotoxicity against human OVCAR-4 cells assessed as cell growth inhibition incubated for 48 hrs by sulforhodamine B reagent assay; type: functional, cell-based; details: OVCAR-4, 48 h
786-0 = assay: Cytotoxicity against human 786-0 cells assessed as cell growth inhibition incubated for 48 hrs by sulforhodamine B reagent assay; type: functional, cell-based; details: 786-0, 48 h
RXF 393 = assay: Cytotoxicity against human RXF 393 cells assessed as cell growth inhibition incubated for 48 hrs by sulforhodamine B reagent assay; type: functional, cell-based; details: RXF 393, 48 h
DU-145 = assay: Cytotoxicity against human DU-145 cells assessed as cell growth inhibition incubated for 48 hrs by sulforhodamine B reagent assay; type: functional, cell-based; details: DU-145, 48 h
MCF7 = assay: Cytotoxicity against human MCF7 cells assessed as cell growth inhibition incubated for 48 hrs by sulforhodamine B reagent assay; type: functional, cell-based; details: MCF7, 48 h
MDA-MB-231 = assay: Cytotoxicity against human MDA-MB-231 cells assessed as cell growth inhibition incubated for 48 hrs by sulforhodamine B reagent assay; type: functional, cell-based; details: MDA-MB-231, 48 h
Hs-578T = assay: Cytotoxicity against human Hs-578T cells assessed as cell growth inhibition incubated for 48 hrs by sulforhodamine B reagent assay; type: functional, cell-based
T47D = assay: Cytotoxicity against human T47D cells assessed as cell growth inhibition incubated for 48 hrs by sulforhodamine B reagent assay; type: functional, cell-based
BT-549 = assay: Cytotoxicity against human BT-549 cells assessed as cell growth inhibition incubated for 48 hrs by sulforhodamine B reagent assay; type: functional, cell-based; details: BT-549, 48 h
K562 [9] = assay: Cytotoxicity against human K562 cells assessed as inhibition of cell growth incubated for 48 hrs by MTT assay; type: functional, cell-based; details: K562, 48 h
SMMC-7721 = assay: Cytotoxicity against human SMMC-7721 cells assessed as inhibition of cell growth incubated for 48 hrs by MTT assay; type: functional, cell-based; details: SMMC-7721, 48 h
HCT-116 [10] = assay: Cytotoxicity against human HCT-116 cells assessed as inhibition of cell growth incubated for 48 hrs by MTT assay; type: functional, cell-based; details: HCT-116, 48 h
Clupea harengus = assay: Binding affinity to herring DNA assessed as binding constant incubated for 30 mins by fluorescence based EtBr-UV absorption spectral analysis
Calf thymus DNA [11] = assay: Binding affinity to calf thymus DNA assessed as binding constant by fluorescence based EtBr-displacement based UV-Vis spectroscopic analysis; type: nucleic-acid assay; details: Bos taurus
Homo sapiens [12] = species: Homo sapiens; assay: Binding affinity to double stranded [poly(dA-dT)2] DNA (unknown origin) assessed as change in melting temperature by thermal denaturation based spectrometer analysis
Homo sapiens [13] = species: Homo sapiens; assay: Binding affinity to double stranded [poly(dA-dT)2] DNA (unknown origin) assessed as change in melting temperature in presence of NaCl by thermal denaturation based spectrometer analysis

For `CCOc1cc(/C=N/N2C(=O)c3cccc4cccc(c34)C2=O)ccc1O`, the Kb (Calf thymus DNA [1]) was 3.33 10^4/M, the IC50 [2] was 1280 µg/mL (≈ 3550 µM) and the IC50 [3] was 1060 µg/mL (≈ 2940 µM).

In the case of `C[n+]1ccn(CCN2C(=O)c3cc(Br)c4c5c(cc(Br)c(c35)C2=O)C(=O)N(CCn2cc[n+](C)c2)C4=O)c1`, the K (Calf thymus DNA [4]) is reported as 9.53 10^6/M.

With `O=C1c2ccc3c4c(ccc(c24)C(=O)N1c1nc(-c2cc4ccccc4oc2=O)cs1)C(=O)N(c1nc(-c2cc4ccccc4oc2=O)cs1)C3=O` the ΔTm (Calf thymus DNA [5]) was 0.1 °C, the IC50 (A2780) was less than 0.1 µM and the MIC (Staphylococcus aureus) was 18.8 µg/mL (≈ 26 µM). It also gave an MIC [6] of 18.8 µg/mL (≈ 26 µM), an MIC (Escherichia coli) of 18.8 µg/mL (≈ 26 µM) and an MIC (Pseudomonas aeruginosa) of 18.8 µg/mL (≈ 26 µM).

For `CN1CCN(c2ccc3nc(-c4ccc(OCCCN5C(=O)c6cccc7cccc(c67)C5=O)cc4)[nH]c3c2)CC1`, the IC50 (K562 [7]) was 0.11 µM, the IC50 (EKVX) was 0.11 µM and the IC50 (NCI-H322M) was 0.11 µM. For the same compound, the IC50 (HCT-116 [8]) was 0.11 µM, the IC50 (KM12) was 0.11 µM and the IC50 (SW-620) was 0.11 µM. It also gave an IC50 (SF-539) of 0.11 µM, an IC50 (SNB-75) of 0.11 µM and an IC50 (U-251) of 0.11 µM. It also gave an IC50 (Malme-3M) of 0.11 µM, an IC50 (SK-MEL-28) of 0.11 µM and an IC50 (SK-MEL-5) of 0.11 µM. For the same compound, the IC50 (OVCAR-4) was 0.11 µM, the IC50 (786-0) was 0.11 µM and the IC50 (RXF 393) was 0.11 µM. For the same compound, the IC50 (DU-145) was 0.11 µM, the IC50 (MCF7) was 0.11 µM and the IC50 (MDA-MB-231) was 0.11 µM. For the same compound, the IC50 (Hs-578T) was 0.11 µM, the IC50 (T47D) was 0.11 µM and the IC50 (BT-549) was 0.11 µM.

Work on `NCCCCNCCCN1C(=O)c2cccc3cccc(c23)C1=O` yielded an IC50 (K562 [9]) of 5.45 µM, an IC50 (SMMC-7721) of 5.45 µM and an IC50 (HCT-116 [10]) of 5.45 µM. The Kb (Clupea harengus) was 6.06 10^3/M.

For `O=C1c2cccc3c([N+](=O)[O-])ccc(c23)C(=O)N1c1cccc(-c2cc[n+]3c(c2)-c2cccc[n+]2CC3)c1`, the K (Calf thymus DNA [11]) was 6.5 10^6/M, the ΔTm (Homo sapiens [12]) was 23 °C and the ΔTm (Homo sapiens [13]) was 11 °C.

With `COc1cccc(/C=N/N2C(=O)c3cccc4cccc(c34)C2=O)c1O` the Kb (Calf thymus DNA [1]) was 2.25 10^4/M, the IC50 [2] was 1430 µg/mL (≈ 4130 µM) and the IC50 [3] was 1170 µg/mL (≈ 3380 µM).
